Assay results taken from US6716422B1, “Vaccine adjuvants for immunotherapy of melanoma” (ARCH Development Corporation, priority 1998, dated 2004).
Ends that are not written are not given here.

How the values were obtained:
[1] = Relative hydrophilicity/solubility of tumor peptides; format: physicochemical
Description: Peptides encoded by several of the unique tumor antigens of the tum^− variants have been defined, such as the P198 peptide used in one of the examples herein. […] Therefore, initial peptide-based immunization studies were performed using the more soluble P198 peptide. Information gained was then examined using P1A peptide as well. Studies with P1A are important in order to measure efficacy of immunization in vivo in terms of protection against living tumor challenge and regression of pre-established tumors. These types of studies would not be possible with P198 because that tumor is rejected spontaneously.

[2] = test system: refractory metastatic melanoma; experiment: Human vaccination study: clinical outcome; format: in vivo; details: one line per patient
Text: Evaluation of tumor regression is a secondary endpoint in this study. Tumor masses are characterized carefully with bidimensional measurements.
Criteria for a Partial Response (PR): 50% reduction in the sum of the product of the largest perpendicular diameters of the indicator lesions identified prior to therapy.
Criteria for a Complete Response (CR): total disappearance of all evidence of tumor without appearance of new lesions.
Criteria for Progressive Disease (PD): appearance of new lesions; and/or fifty percent increase in the sum of the product of the largest perpendicular diameters of the indicator lesions.
Criteria for Stable Disease (SD): Failure to meet the criteria for a Partial Response, Complete Response, or Progressive Disease.

[3] = test system: melanoma cell lines expressing MAGE-3; details: activated B cells or dendritic cells, HLA-A2 donor; only if IL-12 included during initial stimulation; cited from earlier work
[4] = test system: peptide-specific, IFN-γ-producing CD8+ T cells; experiment: Human vaccination study: peptide-specific T cell response; details: one line per patient
Description: Following immunization, assays for peptide specific CTL activity and cytokine production, in particular IFN-γ were conducted.
For each vaccination, 100 cc heparinized blood was obtained and PBMC isolated by Lymphoprep centrifugation. A portion of cells was set aside and separated into CD8+ and CD8-fractions for cryopreservation.
Pulsed PBMC were irradiated (2000 rad), centrifuged, and resuspended in 2 cc DPBS for injection.
Injection of pulsed PBMC was performed subcutaneously, divided between 2 sites, either in upper arms or proximal legs.
rhIL-12, at the assigned dose level (ng/kg), was injected subcutaneously near one of the two vaccine sites.
The entire procedure was repeated every 3 weeks, with clinical reevaluation every 3 cycles.
In vitro expansion of CD8^+ T cells for testing was performed using minimal activation conditions: peptide-pulsed CD8-negative cells as APCs, only 10 U/ml rIL-2 added on day 2 of each stimulation, with one 6-day stimulation followed by a second 4-5 day stimulation.

[5] = test system: advanced renal cell carcinoma; details: cited from earlier work
[6] = cited from earlier work
[7] = cited from earlier work; remark: listed apart in the source
[8] = room temperature; cited from earlier work

Substance: KYQAVTTTL [P198 peptide]
- Hydrophilicity relative to P1A peptide [1]: more hydrophilic than the P1A peptide

Substance: FLWGPRALV [Mage3]
- Clinical Outcome ([2]; IL-12 dose 0): PD (appearance of new lesions; and/or fifty percent increase in the sum of the product of the largest perpendicular diameters of the indicator lesions)
- Clinical Outcome ([2]; IL-12 dose 30 ng/kg): PD (appearance of new lesions; and/or fifty percent increase in the sum of the product of the largest perpendicular diameters of the indicator lesions)
- Clinical Outcome ([2]; IL-12 dose 100 ng/kg): PD (appearance of new lesions; and/or fifty percent increase in the sum of the product of the largest perpendicular diameters of the indicator lesions)
- Induction of specific CTL [3]: specific CTL induced
- Evidence Immunized? ([4]; IL-12 dose 0): No
- Evidence Immunized? ([4]; IL-12 dose 30 ng/kg): Yes

Substance: rhIL-12: recombinant human interleukin-12, manufactured by the Genetics Institute
- Patients requiring hospitalization for adverse events ([5]; 500 ng/kg/day intravenously 5 times per wk, 16 day rest): 12 of the 17
- Deaths attributed to rhIL-12 ([5]; 500 ng/kg/day intravenously): Two
- Patient deaths ([5]; 500 ng/kg/day intravenously): 4
- Toxicities ([6]; intravenous, 3-1000 ng/kg/day): transient cytopenias (nadirs occurring 2-5 days after treatment), reversible increases of transaminases and bilirubin, transient hyperglycemia, stomatitis, and capillary leak syndrome
- Maximally tolerated dose ([6]; intravenous, single test dose, 2 wk later daily for 5 days, every 3 wk): 500 ng/kg/day
- Tumor responses ([6]; patients with various malignancies): several tumor responses observed
- Tolerability ([7]; in vivo): well tolerated
- Renal cell carcinoma patients with a minor response ([7]; subcutaneous schedule): Two
- Time within which unit doses in a syringe must be used [8]: ≤ 4 h
